# In patent US10905122B2, “Use of tetrazolinones for combating resistant phytopathogenic fungi on cereals” (BASF SE, priority 2016, dated 2021):
# Legend:
# Type in all cases: cell-based
# [1] = system: sensitive isolate of Pyrenophora teres; assay: Microtiter test against net blotch, sensitive isolate of Pyrenophora teres; conditions: Example 1B; 63 ppm; absorption at 405 nm 7 days after inoculation; 18° C.
# Text: (§1) Compound I according to the present invention is formulated separately as a stock solution having a concentration of 10000 ppm in dimethyl sulfoxide.
# (§2) The stock solution of compound I according to the present invention was mixed according to the ratio, pipetted onto a micro titer plate (MTP) and diluted with water to the stated concentrations. A spore suspension of a sensitive and a QOI resistant isolate of Pyrenophora teres in an aqueous biomalt or yeast-bactopeptone-glycerine solution was then added. The plates were placed in a water vapor-saturated chamber at a temperature of 18° C. Using an absorption photometer, the MTPs were measured at 405 nm 7 days after the inoculation.
# [2] = system: QOI resistant isolate of Pyrenophora teres; assay: Microtiter test against net blotch, QOI resistant isolate of Pyrenophora teres; conditions: Example 1B; 63 ppm; absorption at 405 nm 7 days after inoculation; 18° C.
# Text: as §1, §2
# [3] = system: sensitive isolate of Septoria tritici; assay: Microtiter test against leaf blotch on wheat, sensitive isolate of Septoria tritici; conditions: 63 ppm, absorption at 405 nm 7 days after inoculation, 18° C.
# Procedure: as §1
# (§3) The stock solution of compound I according to the present invention was mixed according to the ratio, pipetted onto a micro titer plate and diluted with water to the stated concentrations. A spore suspension of a sensitive and a QOI resistant isolate of Septoria tritici in an aqueous biomalt or yeast-bactopeptone-glycerine solution was then added. The plates were placed in a water vapor-saturated chamber at a temperature of 18° C. Using an absorption photometer, the MTPs were measured at 405 nm 7 days after the inoculation.
# (§4) Compound I according to the present invention and compound 1-213 from prior art (WO2013/092224) were formulated separately as a stock solution having a concentration of 10000 ppm in dimethyl sulfoxide. The stock solutions of compound I according to the present invention and compound 1-213 from prior art (WO2013/092224) were mixed according to the ratio, pipetted onto a micro titer plate and diluted with water to the stated concentrations. A spore suspension of a sensitive and a QOI resistant isolate of Septoria tritici in an aqueous biomalt or yeast-bactopeptone-glycerine solution was then added. […] Using an absorption photometer, the MTPs were measured at 405 nm 7 days after the inoculation.
# [4] = system: QOI resistant isolate of Septoria tritici; assay: Microtiter test against leaf blotch on wheat, QOI resistant isolate of Septoria tritici; conditions: 63 ppm, absorption at 405 nm 7 days after inoculation, 18° C.
# Procedure: as §1, §3, §4
compound,measurement,setting,value
"Cc1cccc(-n2nnn(C)c2=O)c1COc1ccn(-c2ccc(Cl)cc2)n1 [compound I, 1-[2-[[1-(4-chlorophenyl)pyrazol-3-yl]oxymethyl]-3-methyl-phenyl]-4-methyl-tetrazol-5-one]",Growth (%) sensitive isolate of Pyrenophora teres.,[1],6%
same,Growth (%) QOI resistant isolate of Pyrenophora teres,[2],6%
same,Growth (%) sensitive isolate of Septoria tritici,[3]; Example 1A,0%
same,Growth (%) sensitive isolate of Septoria tritici,[3]; Example 2 comparative,0%
same,Growth (%) QOI resistant isolate of Septoria tritici,[4]; Example 1A,3%
same,Growth (%) QOI resistant isolate of Septoria tritici,[4]; Example 2 comparative,3%
